Where two headings read alike, the source gives them in different places.
Tests used:
[1] = test system: F32T+H20M (DNA, duplex) CCGCATCTCTACATTCAAGAACTGGCATGCGG/GCCAGTTCTTGAATGTAGAG; assay: FRET melting; conditions: 100 mM K+; 10 mM Tris-HCl, pH 7.35; 2.0 μM compound, 1.0 μM DNA
HL-7702 normal cells = assay: Cytotoxicity assay (MTT assay); assay type: cell-based, human; conditions: for Inhibitory rates (%): HL-7702, 20 μM; for IC50: HL-7702, 24 h
Experimental: (§1) To evaluate the cytotoxicity of chiral platinum(II) complexes, HeLa, BEL-7402, MGC80-3, BEL-7404, A549, Hep-G2 and HL-7702 cells (normal cells) were treated with varying concentrations of complexes 1–6 and cisplatin (positive control, cisplatin was dissolved at a concentration of 1.0 mM in 0.154 M NaCl) for 24 h and 48 h. The cell viability of each experimental group was examined by MTT assays. […] [61, 62].
(§2) Materials 100 U/mL penicillin and 100 μg/mL streptomycin in 25 cm2 culture flasks at 37 °C humidified atmosphere with Tris, RNase A, and propidium iodide (PI) were 5% CO2. All cells to be tested in the following assays have purchased from Sigma. The antibody of mutp53, a passage number of 3-6. […]
(§3) were purchased from Abcam. Unless otherwise stated, BEL-7404, A549, and Hep-G2 cancer-cell lines and HL-spectroscopic titration experiments were carried out in 7702 normal cells) per well were seeded in triplicate in TBS (10 mM pH7.35 Tris-HCl, containing 100 mM KCl). 96-well plates and incubated for 24 h at 37 °C and 5.0% The total RNA isolation kit and the two-step RT-PCR kit CO2/95.0% air. Then graded amounts of compound were purchased from TIANGEN. DNA oligomers (highly added to the wells in 10.0 μL of FBS free culture medium polymerized stored at 4 °C; long-term storage at −20 °C) and the plates were incubated in a 5% CO2 humidified are listed in Supplementary Table 1 and were obtained from atmosphere for 24 h and 48 h. Six replica wells were used Shanghai Sangon Biological Engineering Technology & as controls. Each the cells were grew for 12.0 h before Services (Shanghai, China). All tumor cell lines (HeLa, treatment to reach 70.0% confluency and 20.0 μL of tested BEL-7402, MGC80-3, BEL-7404, A549, Hep-G2 cancer- various concentrations of compounds were added to each cell lines and normal liver cell line HL-7702) were obtained well. The final concentration of the tested complexes from the Shanghai Institute for Biological Science (China). or compounds were kept at 1.25, 2.5, 5, 10, 20 μM, Stock solutions of all the compounds (2.0 mM) were made respectively. After 24 h or 48 h of culture, 0.1 mg of in DMSO, and further dilutions to working concentrations MTT (in 20 μL of PBS) was added to each well, and cells were made with corresponding buffer. were incubated at 37 °C for 6 h. The formed formazan crystals were then dissolved in 100 μL of DMSO and the Instrumentation absorbance was read by enzyme labeling instrument with Infrared spectra were obtained on a Perkine Elmer 490/630 nm double wavelength measurement. The final FT-IR Spectrometer. Elemental analyses (C, H, N) IC50 values were calculated by the Bliss method (n = 5). were carried out on a Perkin Elmer Series II CHNS/O All tests were repeated in at least three independent trials. […]

HeLa cells = assay: Cytotoxicity assay (MTT assay); assay type: cell-based, human; conditions: for Inhibitory rates (%): 20 μM
Experimental: as §1, with “62]. […] Therefore, complex 6 (10 μM) was selected for cell apoptosis analysis by flow-cytometry, RT-PCR, caspase-3/9 activation assays, western blot and transfection assays in BEL-7404 cells for 24 h. In addition, this observed difference in in vitro cytotoxicity between the three complexes 4–6 could be due to the influence of the chirality of the FOA ligand [68]. […]” for “62].”
as §2, §3
(§4) 10.0 min. The cell pellet obtained was dissolved in 1.0 M
(§5) The region between 200 and 400 nm was scanned for each NaOH (1.0 mL) and diluted with 2.0% (v/v) HNO3 (5.0 sample. MTT assay was performed on M1000 microplate mL) for determining whole cell Pt content. Another set reader (Tecan Trading Co. Ltd, Shanghai, China). Cell was treated similarly, nuclear proteins, nuclear fraction, cycle and apoptosis analysis was recorded on FACS Aria cytoplasmic protein, membrane proteins and other fraction II Flow Cytometer (BD Biocsiences, San Jose, USA). were isolated as described by Chen and Schreiber et al. And the each final solution was made up to 5.0 mL
(§6) Cytotoxicity assay (MTT assay) using 2.0% (v/v) HNO3. The amount of Pt taken up by the cells was determined by ICP-MS. The instrument was […]

Hep-G2 cells = assay: Cytotoxicity assay (MTT assay); assay type: cell-based, human; conditions: for Inhibitory rates (%): Hep-G2, 20 μM; for IC50: Hep-G2, 24 h
Experimental: as §1, with “62]. […] Therefore, complex 6 (10 μM) was selected for cell apoptosis analysis by flow-cytometry, RT-PCR, caspase-3/9 activation assays, western blot and transfection assays in BEL-7404 cells for 24 h. In addition, this observed difference in in vitro cytotoxicity between the three complexes 4–6 could be due to the influence of the chirality of the FOA ligand [68]. […]” for “62].”
as §2, §3, §4, §5, §6

BEL-7402 cells = assay: Cytotoxicity assay (MTT assay); assay type: cell-based, human; conditions: for Inhibitory rates (%): BEL-7402, 20 μM; for IC50: BEL-7402, 24 h
Experimental: as §1, with “62]. […] Therefore, complex 6 (10 μM) was selected for cell apoptosis analysis by flow-cytometry, RT-PCR, caspase-3/9 activation assays, western blot and transfection assays in BEL-7404 cells for 24 h. In addition, this observed difference in in vitro cytotoxicity between the three complexes 4–6 could be due to the influence of the chirality of the FOA ligand [68]. […]” for “62].”
as §2, §3, §4, §5, §6

BEL-7404 cells = assay: Cytotoxicity assay (MTT assay); assay type: cell-based, human; conditions: for Inhibitory rates (%): BEL-7404, 20 μM; for IC50: BEL-7404, 24 h
Experimental: as §1, with “62]. […] Therefore, complex 6 (10 μM) was selected for cell apoptosis analysis by flow-cytometry, RT-PCR, caspase-3/9 activation assays, western blot and transfection assays in BEL-7404 cells for 24 h. In addition, this observed difference in in vitro cytotoxicity between the three complexes 4–6 could be due to the influence of the chirality of the FOA ligand [68]. […]” for “62].”
as §2, §3, §4, §5, §6

A549 cells = assay: Cytotoxicity assay (MTT assay); assay type: cell-based, human; conditions: for Inhibitory rates (%): A549, 20 μM; for IC50: A549, 24 h
Experimental: as §1, with “62]. […] Therefore, complex 6 (10 μM) was selected for cell apoptosis analysis by flow-cytometry, RT-PCR, caspase-3/9 activation assays, western blot and transfection assays in BEL-7404 cells for 24 h. In addition, this observed difference in in vitro cytotoxicity between the three complexes 4–6 could be due to the influence of the chirality of the FOA ligand [68]. […]” for “62].”
as §2, §3, §4, §5, §6

MGC80-3 cells [2] = assay: Cytotoxicity assay (MTT assay); assay type: cell-based, human; conditions: for Inhibitory rates (%): MGC80-3, 20 μM; for IC50: MGC80-3, 24 h
Experimental: as §1, with “62]. […] Therefore, complex 6 (10 μM) was selected for cell apoptosis analysis by flow-cytometry, RT-PCR, caspase-3/9 activation assays, western blot and transfection assays in BEL-7404 cells for 24 h. In addition, this observed difference in in vitro cytotoxicity between the three complexes 4–6 could be due to the influence of the chirality of the FOA ligand [68]. […]” for “62].”
as §2, §3, §4, §5, §6

MGC80-3 cells [3] = test system: MGC80-3 cells; parameters: method as in earlier work; conditions: MGC80-3, 48 h; ref [1]; cited from earlier work

O=C(NC[C@@H](O)CO)c1cnc2c3c(cccc13)-c1ccccc1C2=O.[Cl-].[Cl-].[Pt+2] [ligand 2, R-(+)-FOA]
ΔTm [1]: 1.34 °C
selectivity index factor, IC50 (normal HL-7702 cells)/IC50 (BEL-7404 tumor cells) (HL-7702 normal cells; 24 h): 1.4
Inhibitory rates (%) (HL-7702 normal cells; 24 h): 25.2 ± 0.3%
Inhibitory rates (%) (HL-7702 normal cells; 48 h): 30.6 ± 2.1%
IC50 (HL-7702 normal cells): 101.8 ± 0.4 µM
Inhibitory rates (%) (HeLa cells; 24 h): 18.9 ± 0.6%
Inhibitory rates (%) (HeLa cells; 48 h): 26.8 ± 1.2%
IC50 (HeLa cells; 24 h): 87.5 ± 0.8 µM
Inhibitory rates (%) (Hep-G2 cells; 24 h): 17.5 ± 0.4%
Inhibitory rates (%) (Hep-G2 cells; 48 h): 23.6 ± 2.3%
IC50 (Hep-G2 cells): 90.6 ± 0.3 µM
Inhibitory rates (%) (BEL-7402 cells; 24 h): 17.0 ± 0.6%
Inhibitory rates (%) (BEL-7402 cells; 48 h): 22.3 ± 1.1%
IC50 (BEL-7402 cells): 94.1 ± 0.5 µM
Inhibitory rates (%) (BEL-7404 cells; 24 h): 25.1 ± 1.2%
Inhibitory rates (%) (BEL-7404 cells; 48 h): 50.0 ± 0.6%
IC50 (BEL-7404 cells): 72.3 ± 1 µM
Inhibitory rates (%) (A549 cells; 24 h): 28.9 ± 1.4%
Inhibitory rates (%) (A549 cells; 48 h): 47.9 ± 0.9%
IC50 (A549 cells): 67.2 ± 1.5 µM
Inhibitory rates (%) (MGC80-3 cells [2]; 24 h): 9.6 ± 0.6%
Inhibitory rates (%) (MGC80-3 cells [2]; 48 h): 19.6 ± 0.8%
IC50 (MGC80-3 cells [2]): 158.1 ± 0.6 µM
IC50 (MGC80-3 cells [3]): 45.8 ± 2.8 µM

O=C(NCC(O)CO)c1cnc2c3c(cccc13)-c1ccccc1C2=O.[Cl-].[Cl-].[Pt+2] (racemic) [ligand 1, R/S-(±)-FOA]
ΔTm [1]: 1.18 °C
selectivity index factor, IC50 (normal HL-7702 cells)/IC50 (BEL-7404 tumor cells) (HL-7702 normal cells; 24 h): 3.4
Inhibitory rates (%) (HL-7702 normal cells; 24 h): 11.0 ± 1.6%
Inhibitory rates (%) (HL-7702 normal cells; 48 h): 15.2 ± 0.6%
IC50 (HL-7702 normal cells): 141 ± 1.7 µM
Inhibitory rates (%) (HeLa cells; 24 h): 25.6± 1.2%
Inhibitory rates (%) (HeLa cells; 48 h): 33.6 ± 1.3%
IC50 (HeLa cells; 24 h): 69.3 ± 1.3 µM
Inhibitory rates (%) (Hep-G2 cells; 24 h): 21.3 ± 1.9%
Inhibitory rates (%) (Hep-G2 cells; 48 h): 27.8 ± 0.8%
IC50 (Hep-G2 cells): 73.5 ± 2 µM
Inhibitory rates (%) (BEL-7402 cells; 24 h): 30.5 ± 1.4%
Inhibitory rates (%) (BEL-7402 cells; 48 h): 38.9 ± 1.6%
IC50 (BEL-7402 cells): 54.9 ± 1.2 µM
Inhibitory rates (%) (BEL-7404 cells; 24 h): 35.9 ± 0.7%
Inhibitory rates (%) (BEL-7404 cells; 48 h): 51.9 ± 2.7%
IC50 (BEL-7404 cells): 41.2 ± 0.6 µM
Inhibitory rates (%) (A549 cells; 24 h): 32.6 ± 0.4%
Inhibitory rates (%) (A549 cells; 48 h): 48.4 ± 1.6%
IC50 (A549 cells): 45.8 ± 0.3 µM
Inhibitory rates (%) (MGC80-3 cells [2]; 24 h): 18.6 ± 0.3%
Inhibitory rates (%) (MGC80-3 cells [2]; 48 h): 24.9 ± 2.2%
IC50 (MGC80-3 cells [2]): 87.2 ± 0.5 µM
IC50 (MGC80-3 cells [3]): 32.4 ± 0.8 µM
